From patent publication US8431522B2, “Methods of inhibiting tumor cell proliferation” (The Board of Trustees of the University of Illinois, priority 2003, dated 2013)
Entries after “also recorded” stand apart in the source; their conditions may differ. Non-standard residues stand in square brackets, D forms with d. No end group written: not given here.

Legend:
[1] = test system: GFP-FoxM1B fusion protein; test: Localization of GFP-FoxM1B fusion protein in transfected U2OS cells (fluorescence); format: cell-based, human; settings: for targeting of GFP-FoxM1B protein to the nucleolus: cotransfection of expression vector
Excerpt: FIGS. 7A-H show nuclear localization of GFP-FoxM1B fusion protein following treatment with either pharmacological kinase inhibitors or dominant negative kinases. U20S cells were transiently transfected with CMV GFP-FoxM1B with the indicated pharmacological kinase inhibitors (B-D) or dominant-negative kinase expression vectors (E-H). Cells in panel (A) were untreated.
U2OS cells were transiently transfected in 2 well chamber slides (Nunc) with CMV GFP-FoxM1B expression constructs in the presence or absence of either CMV WT T7-p19^ARF, CMV HA-p19^ARF, or CMV expression constructs containing either N-terminal mutant T7-p19^ARF proteins (Δ1-14, Δ15-25, or Δ26-37) or V5-TAT-p19^ARF proteins (26-44; SEQ ID NO: 11, or 26-55; SEQ ID NO: 12). U2OS cells were transiently transfected with CMV EGFP expression vector containing the TAT-p19^ARF proteins (26-44; SEQ ID NO: 11, or 26-55; SEQ ID NO: 12). Forty-eight hours post transfection, cells were fixed in 4% Para-formaldehyde for 20 minutes at room temperature. GFP fluorescence or immuno-fluorescence with anti-HA antibody following TRITC conjugated secondary antibody was detected using a Zeiss microscope. U2OS cells were treated with 12 μM of the arrrarrKFVRSRRPRTASCALAFVN (SEQ ID NO: 10) peptide for 24 hours and then analyzed for TRITC fluorescence as described above.

[2] = test system: FoxM1B transcriptional activity; test: FoxM1B transcription assay with 6X FoxM1B TATA-luciferase reporter in transfected U2OS cells; format: cell-based, human
Procedure: U20S TetR cells were transiently co-transfected with the reporter 6X-FoxM1B-TATA-Luciferase and CMV-TO-FoxM1B (500 ng) alone or with increasing amounts of either CMV-DN-Cdk1, Cdk1 pharmacological inhibitor Alsterpaullone or CMV-Myt1. Results are expressed as the percent activity with respect to wild-type FoxM1B using four separate transfection experiments were performed in triplicate to calculate ±SD.
U20S TetR cells were transiently co-transfected with the reporter 6X-FoxM1B-TATA-Luciferase and CMV-TO-FoxM1B (500 ng) with CMV-DN-p90Rsk, CMV-DN-Ras or DN-AKT or with 50 μM of either U0126 or Ly294002 alone or together or with 25 μM of Akt inhibitor. Four separate transfection experiments were performed in triplicate to calculate ±SD.
A 6X FoxM1B/FoxA TATA-Luciferase utilized 6 copies of the FoxM1B/FoxA binding site (TTTGTTTGTTTG; SEQ ID NO: 6) from the cdx-2 promoter region driving expression of the CMV-TATA box luciferase reporter gene as described previously (Rausa et al., 2003, Mol. Cell. Biol. 23:437-449; Samadani et al., 1996, Mol. Cell. Biol. 16:6273-6284; Ye et al., 1997, Mol. Cell Biol. 17:1626-1641).
Inhibiting Cdk1 activity with either dominant negative (DN) Cdk1 or a pharmacologically active concentration of Alsterpaullone (1 μM) caused an 80% to 90% reduction in FoxM1B transcriptional activity (FIG. 6C). […] Consistent with these findings, stimulation of Cdk1 activity by co-transfection of either CMV Cdc25B or Cdc25C phosphatases enhanced FoxM1B transcriptional activity by 3.4-fold and 1.7-fold, respectfully (FIGS. 6B and 6D). […]
Human osteosarcoma U2OS cells were maintained in DMEM supplemented with 10% fetal calf serum, 1× Pen/Strep and 1× L-Glutamine (Gibco). […] Luciferase activity was determined as percent of wild type FoxM1B activity following normalization to Renilla activity. Experiments were performed at least four times in triplicate and mean±SD determined. […]

[3] = molecular target: T1, FoxM1B protein (Homo sapiens, UniProt Q08050); test: Co-immunoprecipitation of V5-tagged p19ARF sequences with GFP-FoxM1B from transfected U2OS extracts; format: binding; settings: V5 antibody IP, GFP Western blot
T1 construct: expressed in transfected cells; host or cells: U2OS (human osteosarcoma) cells, transient transfection
T1 sequence (Q08050 1-748 isoform Q08050-2): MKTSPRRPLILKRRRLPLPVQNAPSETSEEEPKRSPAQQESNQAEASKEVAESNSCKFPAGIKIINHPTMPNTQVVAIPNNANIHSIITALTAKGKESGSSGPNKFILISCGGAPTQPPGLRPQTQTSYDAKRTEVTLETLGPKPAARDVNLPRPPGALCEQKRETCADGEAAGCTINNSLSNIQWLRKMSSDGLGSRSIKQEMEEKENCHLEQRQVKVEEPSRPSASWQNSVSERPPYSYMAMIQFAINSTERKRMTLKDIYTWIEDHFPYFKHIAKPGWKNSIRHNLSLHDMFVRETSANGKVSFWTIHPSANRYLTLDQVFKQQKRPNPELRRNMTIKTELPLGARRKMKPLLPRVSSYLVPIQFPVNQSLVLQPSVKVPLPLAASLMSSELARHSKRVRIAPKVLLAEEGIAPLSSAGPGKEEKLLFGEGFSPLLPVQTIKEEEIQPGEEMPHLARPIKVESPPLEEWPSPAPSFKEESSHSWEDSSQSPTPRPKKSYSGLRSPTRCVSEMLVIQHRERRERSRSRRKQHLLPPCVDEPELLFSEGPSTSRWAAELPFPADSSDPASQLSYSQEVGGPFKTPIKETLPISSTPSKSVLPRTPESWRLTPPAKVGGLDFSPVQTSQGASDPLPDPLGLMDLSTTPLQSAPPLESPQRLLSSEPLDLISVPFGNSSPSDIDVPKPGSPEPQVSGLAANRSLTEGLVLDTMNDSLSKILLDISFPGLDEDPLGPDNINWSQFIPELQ
Procedure: The p19 protein was immunoprecipitated from transfected protein extracts with V5 epitope antibody followed by Western blot analysis with GFP monoclonal antibody.
To identify p19 protein sequences that are sufficient for association with FoxM1B protein, Co-IP assays were performed with protein extracts prepared from U2OS cells that were transiently transfected with CMV GFP-FoxM1B expression plasmid and the CMV expression vector containing the V5 epitope tagged p19^ARF 26-44 or p19^ARF 26-55 sequences. At the amino terminus of either the p19^ARF sequences 26 to 44 or 26 to 55, we placed the protein transduction/nuclear localization domain ([…]; SEQ ID NO: 13) from the HIV-TAT protein (Becker-Hapak et al., 2001, Methods 24:247-256). Protein extracts were incubated with the V5 epitope tag antibody to IP the p19 protein followed by Western blot analysis with GFP monoclonal antibody to detect the GFP-FoxM1B fusion protein.

[4] = test system: U2OS cells; test: Cellular uptake and localization of TRITC-tagged peptide in U2OS cells; format: cell-based, human; settings: 12 μM, three days
[5] = test system: U2OS clone C3 cells; test: Soft agar colony formation, Doxycycline induced CMV-TETO GFP-FoxM1B U2OS clone C3 cells; format: cell-based, human; settings: 12 μM peptide, 1 μg/ml Doxycycline, two weeks
Procedure: (§1) The T-REx™-U2OS cells were purchased from Invitrogen Life Technologies (Catalog No. R712-07). The T-REx™-U2OS cells express the Tet repressor from pCEP4/tetR that was episomally maintained in tissue culture medium containing 10% fetal calf serum and drug selection with 50 μg/ml of Hygromycin B. Tetracycline regulation in the T-REx System was based on the binding of tetracycline to the TET repressor and de-repressing of the CMV-TETO promoter controlling expression of the gene of interest (Yao et al., 1998, Hum Gene Ther 9:1939-1950). […] U2OS cell colonies that were larger than 1 mm in size were scored after two weeks of growth on the soft agar.
In addition, the tetracycline (TET) regulated T-REx™ System described above was used to conditionally express the GFP-FoxM1B protein in U2OS cells to determine whether conditional overexpression of FoxM1B protein could enhance anchorage-independent growth of U2OS cells. […] The U2OS clone C3 cell line was selected to examine whether doxycycline induced FoxM1B-GFP expression enhanced anchorage-independent growth as assessed by propagation for two weeks on soft agar (Conzen et al., 2000, Mol Cell Biol 20:6008-6018).

[6] = test system: parental U2OS cells; test: Soft agar colony formation, parental (wild type) U2OS cells; format: cell-based, human; settings: 12 μM peptide, two weeks
Procedure: as §1, with “9:1939-1950). The pCDNA4-TO GFP-FoxM1B expression plasmid provided in the T-REx™ system was generated as described previously (Major et al., 2004, Mol. Cell. Biol. 24:2649-2661) and transfected T-REx™-U2OS cells with linearized pCDNA4-TO GFP-Foxm1b expression plasmid to select clonal Doxycycline inducible GFP-Foxm1b U2OS cell lines. CMV-TETO GFP-FoxM1B U2OS clones were isolated by selection for three weeks with tissue culture medium containing 50 μg/ml of Hygromycin B and 250 μg/ml of Zeocin. […] Wild type U2OS cells or CMV-TETO GFP-Foxm1b U2OS clone C3 cells were grown in medium with or without 1 μg/ml of Doxycycline for 2 days prior to either adding the (D-Arg)9-p19^ARF 26-44 peptide or left untreated.” for “9:1939-1950).”

[7] = cotransfection of CMV expression vector, U2OS cells

O=C1Cc2c([nH]c3ccc([N+](=O)[O-])cc23)-c2ccccc2N1 [Alsterpaullone, reference compound]
nuclear localization of transfected CMV GFP-FoxM1B protein ([1]; Alsterpaullone 1 μM): Neither DN-Cdk1 nor Alsterpaullone (1 μM) altered nuclear localization

KFVRSRRPRTASCALAFVN (Mus Musculus) [V5-TAT-p19^ARF 26-44]
FoxM1B transcriptional activity [2, 7]: able to significantly decrease FoxM1B transcriptional activity
targeting of GFP-FoxM1B protein to the nucleolus [1]: targeted to the nucleolus
association with FoxM1B protein (Co-IP) [3]: sufficient to associate with the FoxM1B protein

KFVRSRRPRTASCALAFVNMLLRLERILRR (listed as Mus musculus) [V5-TAT-p19^ARF 26-55]
FoxM1B transcriptional activity [2, 7]: able to significantly decrease FoxM1B transcriptional activity
targeting of GFP-FoxM1B protein to the nucleolus [1]: targeted to the nucleolus

rrrrrrrrrKFVRSRRPRTASCALAFVN ([dR][dR][dR][dR][dR][dR][dR][dR][dR]KFVRSRRPRTASCALAFVN; listed as Mus musculus) [(D-Arg)9-p19^ARF 26-44 peptide, p19ARF 26-44 peptide containing nine D-Arg residues at the N-terminus]
FoxM1B transcriptional activity ([2]; 12 μM peptide, 24 hours, transfected U2OS cells): significant reduction in FoxM1B transcriptional activity; also recorded: effective inhibitor of FoxM1B transcriptional activity
transduction into cells and localization of peptide fluorescence [4]: efficiently transduced into all of the cells and that its fluorescence localized to the nucleolus; also recorded: transduced into the cell and was localized to the nucleolus
FoxM1B induced colony formation on soft agar [5]: significantly diminished the ability of induced GFP-FoxM1B to stimulate colony formation
colony formation on soft agar [6]: significantly diminished the ability of the parental U2OS cells to form colonies on soft agar; also recorded: significantly inhibited colony formation of U2OS cells on soft agar
